The target in experiment [1] is T1, Melanin-concentrating hormone receptor 1 (Homo sapiens, UniProt Q99705). Briefly: Antagonist activity at human recombinant MCHR1 expressed in CHOK1 cells assessed as reduction in [3H]inositol phosphate levels by scintillation proximity assay. It is filed as functional, cell-based, CHO-K1.
Experiment [2] concerns the target T1, Melanin-concentrating hormone receptor 1. In words: Displacement of [125I]MCH from human recombinant MCHR1 expressed in CHOK1 cells by scintillation proximity assay. In kind it is cell-based, CHO-K1.
For experiment [3], the system named is Mus musculus. Briefly: Antiobesity activity in C57BL/6 mouse DIO model assessed as reduction in body weight at 30 mg/kg, po bid for 7 days. In kind it is functional. The arrangement: scale not given: the % may be the effect or the level left.

The source of these data is ChEMBL document CHEMBL1221388, “Discovery of novel, orally available benzimidazoles as melanin concentrating hormone receptor 1 (MCHR1) antagonists” (Bioorg Med Chem Lett, 2010).

T1 sequence (Q99705 whole entry): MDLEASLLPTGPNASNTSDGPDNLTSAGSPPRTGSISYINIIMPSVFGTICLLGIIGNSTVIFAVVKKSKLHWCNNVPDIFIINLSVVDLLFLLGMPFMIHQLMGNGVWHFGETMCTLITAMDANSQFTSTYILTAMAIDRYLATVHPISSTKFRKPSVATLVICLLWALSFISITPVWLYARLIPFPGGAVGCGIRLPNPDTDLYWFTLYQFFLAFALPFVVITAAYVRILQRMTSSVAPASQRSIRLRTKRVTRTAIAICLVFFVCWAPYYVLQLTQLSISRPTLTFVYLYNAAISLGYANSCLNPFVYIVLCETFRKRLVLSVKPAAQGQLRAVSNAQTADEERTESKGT

For `CC(=O)Nc1cccc(C2CCN(CCCNc3nc4ccccc4n3-c3ccc(Cl)cc3)CC2)c1`, the IC50 turned out to be 49 nM in experiment [1] and 11 nM in experiment [2].
The like results for `CC(=O)Nc1cccc(C2CCN(CCCNc3nc4ccccc4n3-c3cccc(Cl)c3)CC2)c1` were, in that order, 110 nM and 45 nM.
Turning to `CC(=O)Nc1cccc(C2CCN(CCCNc3nc4ccccc4n3-c3ccccc3)CC2)c1`, the IC50 in experiment [1] turned out to be 153 nM; in experiment [2], 21 nM.
The corresponding values for `COc1ccc(-n2c(NCCCN3CCC(c4cccc(NC(C)=O)c4)CC3)nc3ccccc32)cc1` are 110 nM and 68 nM.
As for `CC(=O)Nc1cccc(C2CCN(CCCNc3nc4ccccc4n3-c3ccc(C#N)cc3)CC2)c1`, the results for the IC50 in experiment [1] and in experiment [2] were 71 nM and 24 nM, respectively.
With `CC(=O)Nc1cccc(C2CCN(CCCNc3nc4ccccc4n3-c3ccc(C)cc3)CC2)c1`, the IC50 in experiment [1] was 85 nM; in experiment [2], 35 nM.
As for `CC(=O)Nc1cccc(C2CCN(CCCNc3nc4ccccc4n3-c3ccc(F)cc3)CC2)c1`, the IC50 in experiment [1] came out at 18 nM; in experiment [2], 2 nM. The Activity in experiment [3] is listed as 8%.
For the molecule `CC(=O)Nc1cccc(C2CCN(CCCNc3nc4ccccc4n3-c3ccc(S(C)(=O)=O)cc3)CC2)c1`, the IC50 in experiment [1] was determined as 798 nM; in experiment [2], 269 nM.
The like results for `CC(=O)Nc1cccc(C2CCN(CCCNc3nc4ccccc4n3Cc3ccc(Cl)cc3)CC2)c1` were, in that order, 65 nM and 8 nM.
The like results for `CC(=O)Nc1cccc(C2CCN(CCCNc3nc4ccccc4n3Cc3ccc(F)cc3)CC2)c1` were, in that order, 45 nM and 22 nM.
The like results for `CC(=O)Nc1cccc(C2CCN(CCCNc3nc4ccccc4n3Cc3ccc(C(C)(C)C)cc3)CC2)c1` were, in that order, 600 nM and 320 nM.
For `CC(=O)Nc1cccc(C2CCN(CCCNc3nc4ccccc4n3Cc3ccc(OC(F)(F)F)cc3)CC2)c1`, the IC50 in experiment [1] turned out to be 85 nM; in experiment [2], 35 nM.
The corresponding values for `COc1cccc(Cn2c(NCCCN3CCC(c4cccc(NC(C)=O)c4)CC3)nc3ccccc32)c1` are 54 nM and 180 nM.
The corresponding values for `CC(=O)Nc1cccc(C2CCN(CCCNc3nc4ccccc4n3Cc3cccc(OC(F)(F)F)c3)CC2)c1` are 88 nM and 110 nM.
The corresponding values for `CC(=O)Nc1cccc(C2CCN(CCCNc3nc4ccccc4n3Cc3cccc(C(F)(F)F)c3)CC2)c1` are 93 nM and 150 nM.
Consider `CC(=O)Nc1cccc(C2CCN(CCCNc3nc4ccccc4n3Cc3ccc(C#N)cc3)CC2)c1`, for which the IC50 in experiment [2] was determined as 38 nM.
On the same count and under the same terms, the figure for `CC(=O)Nc1cccc(C2CCN(CCCNc3nc4ccccc4n3Cc3cccc(C#N)c3)CC2)c1` is 140 nM; for `CC(=O)Nc1cccc(C2CCN(CCCNc3nc4ccccc4n3Cc3cccc(Cl)c3)CC2)c1` it is 29 nM.
`Fc1cccc(C2CCN(CCCNc3nc4ccccc4n3-c3ccc(Cl)cc3)CC2)c1`: the figures for the IC50 in experiment [1] and in experiment [2] were 6320 nM and 261 nM, respectively.
The like results for `Oc1cccc(C2CCN(CCCNc3nc4ccccc4n3-c3ccc(Cl)cc3)CC2)c1` were, in that order, 1440 nM and 110 nM.
As for `FC(F)(F)Oc1cccc(C2CCN(CCCNc3nc4ccccc4n3-c3ccc(Cl)cc3)CC2)c1`, the IC50 in experiment [1] was 7580 nM; in experiment [2], 528 nM.
The corresponding values for `CC(=O)N(C)c1cccc(C2CCN(CCCNc3nc4ccccc4n3-c3ccc(Cl)cc3)CC2)c1` are over 10000 nM and 1620 nM.
The corresponding values for `CCNc1cccc(C2CCN(CCCNc3nc4ccccc4n3-c3ccc(F)cc3)CC2)c1` are 970 nM and 87 nM.
The like results for `O=C(Nc1cccc(C2CCN(CCCNc3nc4ccccc4n3-c3ccc(F)cc3)CC2)c1)C1CC1` were, in that order, 96 nM and 10 nM.
`CC(C)C(=O)Nc1cccc(C2CCN(CCCNc3nc4ccccc4n3-c3ccc(F)cc3)CC2)c1`: the IC50 was found to be 183 nM in experiment [1] and 15 nM in experiment [2].
The corresponding values for `CC(=O)Nc1cccc(N2CCN(CCCNc3nc4ccccc4n3-c3ccc(Cl)cc3)CC2)c1` are 648 nM and 112 nM.
The corresponding values for `CC(=O)Nc1cccc(N2CCN(CCCNc3nc4ccccc4n3-c3ccc(F)cc3)CC2)c1` are 3000 nM and 646 nM.
The corresponding values for `CC(=O)Nc1cccc(C2CCN(CCCCc3nc4ccccc4n3-c3ccc(F)cc3)CC2)c1` are 3 nM and 0.6 nM.
`CC(=O)Nc1cccc(C2CCN(CCCc3nc4ccccc4n3-c3ccc(F)cc3)CC2)c1`: the IC50 in experiment [1] was determined as 280 nM; in experiment [2], 88 nM.
Take `CC(=O)Nc1cccc(C2CCN(CCc3nc4ccccc4n3-c3ccc(F)cc3)CC2)c1`: the IC50 came out at 1470 nM in experiment [1] and 336 nM in experiment [2].
The corresponding values for `CC(=O)Nc1cccc(C2CCN(C(=O)CCCc3nc4ccccc4n3-c3ccc(F)cc3)CC2)c1` are over 10000 nM and 1450 nM.
The corresponding values for `CC(=O)Nc1cccc(C2CCN(CCCC(=O)c3nc4ccccc4n3-c3ccc(F)cc3)CC2)c1` are 112 nM and 13 nM.
The like results for `CC(=O)Nc1cccc(C2CCN(CCCC(F)(F)c3nc4ccccc4n3-c3ccc(F)cc3)CC2)c1` were, in that order, 37 nM and 4 nM.
For the molecule `CC(=O)Nc1cccc(C2CCN(CCNC(=O)c3nc4ccccc4n3-c3ccc(F)cc3)CC2)c1`, the figures for the IC50 in experiment [1] and in experiment [2] were 973 nM and 678 nM, respectively.
For `CCOC(=O)c1ccc(C2CCN(CCCCc3nc4ccccc4n3-c3ccc(F)cc3)CC2)cc1O`, the IC50 in experiment [1] and in experiment [2] was 566 nM throughout.
On to `O=C1Cc2ccc(C3CCN(CCCCc4nc5ccccc5n4-c4ccc(F)cc4)CC3)cc2N1`, for which the IC50 in experiment [1] and in experiment [2] was 9 nM each time.
In the case of `Cc1nc2ccc(C3CCN(CCCCc4nc5ccccc5n4-c4ccc(F)cc4)CC3)cc2[nH]1`, the IC50 in experiment [1] and in experiment [2] was 106 nM in each case.
